Data from the supplement of paper PMC10307832.

Assays:
Experiment in all cases: relative viability (nuclei count vs DMSO), 5 days (fraction); higher = more cells survive
[1] = tested on: PC-14
In short: (§1)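 For relative viability, nuclei counts in treated wells were divided by those in vehicle wells. Lung cancer cell lines had been pin-tool dosed in 1536-well plates the day after seeding and cultured for 5 days, then fixed and stained in one step (final 0.05% Triton X-100, 1% formaldehyde, 1 ug/ml Hoechst) and imaged at 4×. Doses were one drug alone or a fixed anchor-drug dose plus five library-drug doses (not always all listed) in √10 steps, and values are duplicate-plate medians.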

[2] = tested on: NCI-H838
In short: as §1

[3] = tested on: HCC-44
In short: as §1

[4] = tested on: NCI-H650
In short: as §1

[5] = tested on: LC-2-ad
In short: as §1

[6] = tested on: NCI-H1355
In short: as §1

[7] = tested on: NCI-H1915
In short: as §1

[8] = tested on: HCC-15
In short: as §1

[9] = tested on: NCI-H2347
In short: as §1

[10] = tested on: ABC-1
In short: as §1

[11] = tested on: LU99A
In short: as §1

[12] = tested on: NCI-H2023
In short: as §1

[13] = tested on: HOP-62
In short: as §1

[14] = tested on: NCI-H2085
In short: as §1

[15] = tested on: SW 1573
In short: as §1

[16] = tested on: NCI-H1651
In short: as §1

[17] = tested on: COR-L23
In short: as §1

[18] = tested on: NCI-H1993
In short: as §1

[19] = tested on: UMC-11
In short: as §1

[20] = tested on: NCI-H2126
In short: as §1

[21] = tested on: HARA
In short: as §1

[22] = tested on: EPLC-272H
In short: as §1

With `COc1cc2nccc(Oc3ccc(NC(=O)Nc4cc(C)on4)c(Cl)c3)c2cc1OC` [Tivozanib] + CS(=O)(=O)N1CCN(Cc2cc3nc(-c4cccc5[nH]ncc45)nc(N4CCOCC4)c3s2)CC1 [Pictilisib] (partner 1 µM) the relative viability ([1]; first compound 0.005 µM) was 0.631, the relative viability ([1]; first compound 0.01581 µM) was 0.604 and the relative viability ([1]; first compound 0.05 µM) was 0.693. For the same compound, the relative viability ([1]; first compound 0.1581 µM) was 0.51, the relative viability ([1]; first compound 0.5 µM) was 0.635 and the relative viability ([2]; first compound 0.005 µM) was 0.443. The relative viability ([2]; first compound 0.01581 µM) was 0.498, the relative viability ([2]; first compound 0.05 µM) was 0.453 and the relative viability ([2]; first compound 0.5 µM) was 0.501. The relative viability ([3]; first compound 0.005 µM) was 0.617, the relative viability ([3]; first compound 0.01581 µM) was 0.471 and the relative viability ([3]; first compound 0.05 µM) was 0.718. It also gave a relative viability ([3]; first compound 0.1581 µM) of 0.488, a relative viability ([3]; first compound 0.5 µM) of 0.654 and a relative viability ([4]; first compound 0.005 µM) of 0.674. For the same compound, the relative viability ([4]; first compound 0.01581 µM) was 0.866, the relative viability ([4]; first compound 0.05 µM) was 0.771 and the relative viability ([4]; first compound 0.1581 µM) was 0.78. It also gave a relative viability ([4]; first compound 0.5 µM) of 0.77, a relative viability ([5]; first compound 0.005 µM) of 0.417 and a relative viability ([5]; first compound 0.01581 µM) of 0.353. The relative viability ([5]; first compound 0.05 µM) was 0.263, the relative viability ([5]; first compound 0.1581 µM) was 0.204 and the relative viability ([5]; first compound 0.5 µM) was 0.159. It also gave a relative viability ([6]; first compound 0.005 µM) of 0.381, a relative viability ([6]; first compound 0.01581 µM) of 0.41 and a relative viability ([6]; first compound 0.05 µM) of 0.441. For the same compound, the relative viability ([6]; first compound 0.5 µM) was 0.387, the relative viability ([7]; first compound 0.005 µM) was 0.936 and the relative viability ([7]; first compound 0.01581 µM) was 0.995. It also gave a relative viability ([7]; first compound 0.05 µM) of 0.901, a relative viability ([7]; first compound 0.1581 µM) of 0.485 and a relative viability ([7]; first compound 0.5 µM) of 0.742. The relative viability ([8]; first compound 0.005 µM) was 0.631, the relative viability ([8]; first compound 0.01581 µM) was 0.641 and the relative viability ([8]; first compound 0.05 µM) was 0.719. The relative viability ([8]; first compound 0.1581 µM) was 0.588, the relative viability ([8]; first compound 0.5 µM) was 0.717 and the relative viability ([9]; first compound 0.005 µM) was 0.599. The relative viability ([9]; first compound 0.01581 µM) was 0.53, the relative viability ([9]; first compound 0.05 µM) was 0.846 and the relative viability ([9]; first compound 0.1581 µM) was 0.344. The relative viability ([9]; first compound 0.5 µM) was 0.727, the relative viability ([10]; first compound 0.005 µM) was 0.775 and the relative viability ([10]; first compound 0.01581 µM) was 0.673. The relative viability ([10]; first compound 0.05 µM) was 0.794, the relative viability ([10]; first compound 0.1581 µM) was 0.646 and the relative viability ([10]; first compound 0.5 µM) was 0.326. For the same compound, the relative viability ([11]; first compound 0.005 µM) was 0.315, the relative viability ([11]; first compound 0.01581 µM) was 0.339 and the relative viability ([11]; first compound 0.05 µM) was 0.348. It also gave a relative viability ([11]; first compound 0.5 µM) of 0.317, a relative viability ([12]; first compound 0.005 µM) of 0.238 and a relative viability ([12]; first compound 0.01581 µM) of 0.228. It also gave a relative viability ([12]; first compound 0.05 µM) of 0.249, a relative viability ([12]; first compound 0.1581 µM) of 0.178 and a relative viability ([12]; first compound 0.5 µM) of 0.195. For the same compound, the relative viability ([13]; first compound 0.005 µM) was 0.579, the relative viability ([13]; first compound 0.01581 µM) was 0.744 and the relative viability ([13]; first compound 0.05 µM) was 0.708. The relative viability ([13]; first compound 0.1581 µM) was 0.368, the relative viability ([13]; first compound 0.5 µM) was 0.649 and the relative viability ([14]; first compound 0.005 µM) was 0.474. The relative viability ([14]; first compound 0.01581 µM) was 0.456, the relative viability ([14]; first compound 0.05 µM) was 0.536 and the relative viability ([14]; first compound 0.1581 µM) was 0.405. For the same compound, the relative viability ([14]; first compound 0.5 µM) was 0.408, the relative viability ([15]; first compound 0.005 µM) was 0.448 and the relative viability ([15]; first compound 0.01581 µM) was 0.479. The relative viability ([15]; first compound 0.05 µM) was 0.505, the relative viability ([15]; first compound 0.1581 µM) was 0.346 and the relative viability ([15]; first compound 0.5 µM) was 0.406. For the same compound, the relative viability ([16]; first compound 0.005 µM) was 0.464, the relative viability ([16]; first compound 0.01581 µM) was 0.581 and the relative viability ([16]; first compound 0.05 µM) was 0.613. It also gave a relative viability ([16]; first compound 0.1581 µM) of 0.484, a relative viability ([16]; first compound 0.5 µM) of 0.783 and a relative viability ([17]; first compound 0.005 µM) of 0.733. For the same compound, the relative viability ([17]; first compound 0.01581 µM) was 0.74, the relative viability ([17]; first compound 0.05 µM) was 0.917 and the relative viability ([17]; first compound 0.1581 µM) was 0.575. The relative viability ([17]; first compound 0.5 µM) was 0.565, the relative viability ([18]; first compound 0.005 µM) was 0.845 and the relative viability ([18]; first compound 0.01581 µM) was 0.782. For the same compound, the relative viability ([18]; first compound 0.05 µM) was 0.875, the relative viability ([18]; first compound 0.1581 µM) was 0.709 and the relative viability ([18]; first compound 0.5 µM) was 0.737. For the same compound, the relative viability ([19]; first compound 0.005 µM) was 0.793, the relative viability ([19]; first compound 0.01581 µM) was 0.725 and the relative viability ([19]; first compound 0.05 µM) was 0.712. It also gave a relative viability ([19]; first compound 0.5 µM) of 0.653, a relative viability ([20]; first compound 0.005 µM) of 0.41 and a relative viability ([20]; first compound 0.01581 µM) of 0.533. It also gave a relative viability ([20]; first compound 0.05 µM) of 0.489, a relative viability ([20]; first compound 0.1581 µM) of 0.36 and a relative viability ([20]; first compound 0.5 µM) of 0.469. It also gave a relative viability ([21]; first compound 0.005 µM) of 0.395, a relative viability ([21]; first compound 0.01581 µM) of 0.312 and a relative viability ([21]; first compound 0.05 µM) of 0.485. It also gave a relative viability ([21]; first compound 0.1581 µM) of 0.309, a relative viability ([21]; first compound 0.5 µM) of 0.603 and a relative viability ([22]; first compound 0.005 µM) of 0.311. It also gave a relative viability ([22]; first compound 0.01581 µM) of 0.31, a relative viability ([22]; first compound 0.05 µM) of 0.326 and a relative viability ([22]; first compound 0.1581 µM) of 0.285. For the same compound, the relative viability ([22]; first compound 0.5 µM) was 0.162.
